Reference: PubChem BioAssay (NCI)
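48-hour exposure; five concentrations; linearly interpolated endpoints. Abbreviation: GI50, concentration required for 50% inhibition of growth. The concentration for full growth arrest is given as TGI.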

How the values were obtained:
Test in all cases: NCI tumour cell line growth inhibition, 48 h
[1] = test system: 786-0 renal
[2] = test system: A498 renal
[3] = test system: A549 NSCLC
[4] = test system: ACHN renal
[5] = test system: BT-549 breast
[6] = test system: CAKI-1 renal
[7] = test system: COLO 205 colon
[8] = test system: DU-145 prostate
[9] = test system: EKVX NSCLC
[10] = test system: HCC-2998 colon
[11] = test system: HCT-116 colon
[12] = test system: HCT-15 colon
[13] = test system: HOP-62 NSCLC
[14] = test system: HOP-92 NSCLC
[15] = test system: HS 578T breast
[16] = test system: HT29 colon
[17] = test system: IGROV1 ovarian
[18] = test system: K-562 leukemia
[19] = test system: KM12 colon
[20] = test system: LOX IMVI melanoma
[21] = test system: M14 melanoma
[22] = test system: MALME-3M melanoma
[23] = test system: MCF7 breast
[24] = test system: MDA-MB-231 breast
[25] = test system: MDA-MB-435
[26] = test system: MOLT-4 leukemia
[27] = test system: NCI-H226 lung
[28] = test system: NCI-H23 lung
[29] = test system: NCI-H460 lung
[30] = test system: NCI-H522 lung
[31] = test system: NCI/ADR-RES ovarian
[32] = test system: OVCAR-3 ovarian
[33] = test system: OVCAR-4 ovarian
[34] = test system: OVCAR-5 ovarian
[35] = test system: OVCAR-8 ovarian
[36] = test system: PC-3 prostate
[37] = test system: RPMI-8226 leukemia
[38] = test system: RXF 393 renal
[39] = test system: SF-268 CNS
[40] = test system: SF-295 CNS
[41] = test system: SF-539 CNS
[42] = test system: SK-MEL-2 melanoma
[43] = test system: SK-MEL-28 melanoma
[44] = test system: SK-MEL-5 melanoma
[45] = test system: SK-OV-3 ovarian
[46] = test system: SN12C renal
[47] = test system: SNB-19 CNS
[48] = test system: SR leukemia
[49] = test system: SW-620 colon
[50] = test system: T-47D breast
[51] = test system: TK-10 renal
[52] = test system: U251 CNS
[53] = test system: UACC-257 melanoma
[54] = test system: UACC-62 melanoma
[55] = test system: UO-31 renal

Cn1ccc2c1SSSSS2
GI50 [1]: 26.4 µM
TGI [1]: 58.7 µM
GI50 [2]: > 100 µM
TGI [2]: > 100 µM
GI50 [3]: 52.2 µM
TGI [3]: > 100 µM
GI50 [4]: 28.4 µM
TGI [4]: 73.3 µM
GI50 [5]: 61.4 µM
TGI [5]: > 100 µM
GI50 [6]: 22.4 µM
TGI [6]: 45.7 µM
GI50 [7]: 15.1 µM
TGI [7]: 41.6 µM
GI50 [8]: 31.7 µM
TGI [8]: > 100 µM
GI50 [9]: 44.5 µM
TGI [9]: > 100 µM
GI50 [10]: 17.1 µM
TGI [10]: 33 µM
GI50 [11]: 17.4 µM
TGI [11]: 31.1 µM
GI50 [12]: 33.8 µM
TGI [12]: > 100 µM
GI50 [13]: > 100 µM
TGI [13]: > 100 µM
GI50 [14]: 2.88 µM
TGI [14]: 7.66 µM
GI50 [15]: 28.8 µM
TGI [15]: 71.2 µM
GI50 [16]: 24.1 µM
TGI [16]: 59.6 µM
GI50 [17]: 35.9 µM
TGI [17]: > 100 µM
GI50 [18]: 23.2 µM
TGI [18]: > 100 µM
GI50 [19]: 17 µM
TGI [19]: 35.8 µM
GI50 [20]: 24.8 µM
TGI [20]: 71 µM
GI50 [21]: 18 µM
TGI [21]: 35.6 µM
GI50 [22]: 11.2 µM
TGI [22]: 41.6 µM
GI50 [23]: 17.4 µM
TGI [23]: 43.2 µM
GI50 [24]: 17.9 µM
TGI [24]: 45.8 µM
GI50 [25]: 23.7 µM
TGI [25]: 53.8 µM
GI50 [26]: 28.5 µM
TGI [26]: > 100 µM
GI50 [27]: 21.5 µM
TGI [27]: 51 µM
GI50 [28]: 18.9 µM
TGI [28]: 36.4 µM
GI50 [29]: 47.6 µM
TGI [29]: > 100 µM
GI50 [30]: 32.1 µM
TGI [30]: > 100 µM
GI50 [31]: 22.8 µM
TGI [31]: 54.7 µM
GI50 [32]: 16.5 µM
TGI [32]: 36.1 µM
GI50 [33]: 21.8 µM
TGI [33]: 56 µM
GI50 [34]: 23 µM
TGI [34]: 47.1 µM
GI50 [35]: 96.7 µM
TGI [35]: > 100 µM
GI50 [36]: 25.3 µM
TGI [36]: 66.4 µM
GI50 [37]: 20.9 µM
TGI [37]: 52.9 µM
GI50 [38]: 28.9 µM
TGI [38]: > 100 µM
GI50 [39]: 30.8 µM
TGI [39]: > 100 µM
GI50 [40]: 41.3 µM
TGI [40]: > 100 µM
GI50 [41]: 25.6 µM
TGI [41]: 69.8 µM
GI50 [42]: 49.6 µM
TGI [42]: > 100 µM
GI50 [43]: 21.1 µM
TGI [43]: 47.5 µM
GI50 [44]: 16.5 µM
TGI [44]: 35.9 µM
GI50 [45]: 37.5 µM
TGI [45]: > 100 µM
GI50 [46]: 21 µM
TGI [46]: 42 µM
GI50 [47]: 36 µM
TGI [47]: > 100 µM
GI50 [48]: 4.6 µM
TGI [48]: 33.8 µM
GI50 [49]: 29.1 µM
TGI [49]: 84.7 µM
GI50 [50]: 11.8 µM
TGI [50]: 47.6 µM
GI50 [51]: 27.1 µM
TGI [51]: 68.9 µM
GI50 [52]: 40 µM
TGI [52]: > 100 µM
GI50 [53]: 52.3 µM
TGI [53]: > 100 µM
GI50 [54]: 17.3 µM
TGI [54]: 34.6 µM
GI50 [55]: 36 µM
TGI [55]: > 100 µM
